# Patent US9381173B2, “Isolated stereoisomeric forms of (S)2-N(3-O-(propan 2-Ol)-1-propyl-4-hydroxybenzene)-3-phenylpropylamide” (Novaremed Ltd., priority 2011, dated 2016)
# Assays:
# Lyn B = Lyn B (Homo sapiens, UniProt P07948); assay: Lyn B mobility-shift kinase assay (Caliper LabChip 3000); assay type: biochemical; settings: 5 concentrations, duplicate wells; listed as (S,S) enantiomer
# Experimental: (§1) Each compound and concentration was tested in duplicate wells.
# (§2) Data points are the averages of duplicate wells. Error bars represent the mean±replicate % activity.
# [1] = tested on: spinal nerve ligation (SNL or Chung) model for neuropathic pain in rats; assay: Spinal nerve ligation (Chung) model, Von Frey test for mechanical allodynia; assay type: in vivo; settings: for delta force right minus left leg, Day 14 Pretreatment / mean Von Frey force, left operated leg, Day 14 Pretreatment: before first dose; for difference (delta) force between right healthy leg and left operated leg, Baseline: before operation; for mean Von Frey force required for withdrawal of the left operated leg, Baseline: day -1, before operation
# Experimental: The antinociceptive and analgesic activity of E1 in a spinal nerve ligation (SNL or Chung) model for neuropathic pain in rats was evaluated.
# On study day 0, all animals underwent Chung surgery, which consisted of an operation where the left L5-L6 spinal nerves were isolated and cut. Fourteen days post surgery the animals were selected using pain threshold results from the Von Frey test. Only animals that indicated signs of mechanical allodynia were included in the study. After the selection process, the animals were grouped and Test Items were administered via IP. The pain response was measured using Von Frey methodology at 2, 5 and 24 hours after Test Item administration on study day 14, and at 2, 5, 24 and 48 hours on study day 21 after 7 days of Test Item administration.
# Species: 50 SD young adult male rats, 225-260 g at study initiation (Harlan Laboratories, Israel. Ltd.)
# Neuropathic Pain Induction: While under anesthesia using ketamine/xylazine sodium and after the area was shaved, the rat was placed in a prone position and the left paraspinal muscles were separated from the spinous process at the L4-S2 levels. The L6 vertebral transverse process was carefully removed with a small rongeur to visually identify the L5-L6 spinal nerves. The left L5-L6 spinal nerves were cut. The muscle was then closed with 4-0 silk sutures and the skin was closed by a clamp. Following surgery, the rats were returned to the cage and remained under a heating lamp until they awoke.
# Inclusion/Exclusion Criteria for Pre-Selection: On post-operative day 14, animals were tested for mechanical allodynia using Von Frey methodology prior to being placed in their experimental groups. Only animals with a pain threshold of ≦26 g for the operated leg were included in the study. In order to form homogenous treatment groups and to adhere to randomization, all the operated rats were grouped according to inclusion/exclusion criteria.
# The Von Frey test was performed prior to Test Items' administrations (pre-TI injection) and at 2 and 5 hours after TI administration (post-TI injection) on study days 14 and 21.
# Von Frey test was performed prior to TI's administration on study day 15 (24 hours post-TI's administration on study day 14) and on study days 22 and 23 (24 and 48 hours respectively post-TI's administration on study day 21).
# Pain Response Evaluation: Pain response was evaluated using Von Frey test for mechanical allodynia.
# The Von Frey test for mechanical allodynia is based on applying short pulses of pressure that are not painful to a naive animal. In fact, in order to achieve paw withdrawal from a naive animal, the pressure applied is sometimes higher than 60 g. This often requires the researcher to apply enough pressure with the Von Frey filament to actually lift the paw of the naive animal. However, in disease conditions, the animals are sensitive to much lower pressure and experience pain as a result of a normally non-painful stimulus.
# Mechanical Allodynia Evaluation (Von Frey Testing): Allodynic response to tactile stimulation was assessed using the Von Frey apparatus (Touch®).
# The rats were placed in an enclosure and positioned on a metal mesh surface, but allowed to move freely. The rats' cabins were covered with red cellophane to diminish environmental disturbances. The test began after cessation of exploratory behavior. The set of Von Frey monofilaments provide an approximate logarithmic scale of actual force and a linear scale of perceived intensity as provided by the manufacturer of the Von Frey apparatus (Ugo Basil). The operating principle: When the tip of a fiber of given length and diameter is pressed against the skin at right angles, the force of application increases as long as the researcher continues to advance the probe until the fiber bends. After the fiber bends, the probe continues to advance, causing the fiber to bend more, but without additional force being applied to the paw. […]
# [2] = Body weight in the Chung model study; assay type: in vivo, rats; settings: for Mean group body weight Day 14: before first administration; for Mean group body weight Day 7: before treatment; for Mean group body weight Baseline: study day -1, before surgery and treatment
# Experimental: Body Weights: Body weight was measured at regular intervals on study days −1 for baseline values and seven days after the surgery (study day 7).
# Lyn A = Lyn A (Homo sapiens, UniProt P07948); assay: Lyn A mobility-shift kinase assay (Caliper LabChip 3000); assay type: biochemical; settings: 5 concentrations, duplicate wells; listed as (S,S) enantiomer
# Experimental: as §1, §2
# BLK = BLK (Homo sapiens, UniProt P51451); assay: BLK mobility-shift kinase assay (Caliper LabChip 3000); assay type: biochemical; settings: 5 concentrations, duplicate wells; listed as (S,S) enantiomer
# Experimental: as §1, §2
# [3] = 7.5 mg/kg IP, day 14, 2, 5 and 24 hours
# [4] = 7.5 mg/kg IP, study day 14, 2, 5 and 24 hours
# [5] = 15 mg/kg IP once daily day 14-21 (group 4)
# [6] = 15 mg/kg IP, day 14, 5 and 24 hours
# [7] = 15 mg/kg IP, study day 14, 5 and 24 hours
# [8] = 30 mg/kg IP once daily day 14-21 (group 3)
# [9] = 30 mg/kg IP once daily from day 14 (group 3)
# [10] = 30 mg/kg IP, day 21, 2, 5 and 24 hours
# BLK, sequence (P51451 whole entry, species assumed): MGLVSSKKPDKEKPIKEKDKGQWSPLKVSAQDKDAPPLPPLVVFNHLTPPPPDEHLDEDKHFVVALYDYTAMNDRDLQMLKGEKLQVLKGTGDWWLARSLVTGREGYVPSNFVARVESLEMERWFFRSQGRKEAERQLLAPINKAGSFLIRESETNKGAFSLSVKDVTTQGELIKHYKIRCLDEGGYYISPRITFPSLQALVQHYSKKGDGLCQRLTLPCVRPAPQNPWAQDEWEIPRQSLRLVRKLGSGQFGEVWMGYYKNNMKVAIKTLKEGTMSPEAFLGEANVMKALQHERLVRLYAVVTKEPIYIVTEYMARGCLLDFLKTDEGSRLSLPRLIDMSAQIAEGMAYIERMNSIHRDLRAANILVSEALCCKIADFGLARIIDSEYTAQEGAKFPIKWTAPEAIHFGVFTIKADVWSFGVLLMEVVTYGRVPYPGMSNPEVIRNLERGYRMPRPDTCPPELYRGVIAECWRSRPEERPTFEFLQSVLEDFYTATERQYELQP
# Lyn A, sequence (P07948 whole entry, species assumed): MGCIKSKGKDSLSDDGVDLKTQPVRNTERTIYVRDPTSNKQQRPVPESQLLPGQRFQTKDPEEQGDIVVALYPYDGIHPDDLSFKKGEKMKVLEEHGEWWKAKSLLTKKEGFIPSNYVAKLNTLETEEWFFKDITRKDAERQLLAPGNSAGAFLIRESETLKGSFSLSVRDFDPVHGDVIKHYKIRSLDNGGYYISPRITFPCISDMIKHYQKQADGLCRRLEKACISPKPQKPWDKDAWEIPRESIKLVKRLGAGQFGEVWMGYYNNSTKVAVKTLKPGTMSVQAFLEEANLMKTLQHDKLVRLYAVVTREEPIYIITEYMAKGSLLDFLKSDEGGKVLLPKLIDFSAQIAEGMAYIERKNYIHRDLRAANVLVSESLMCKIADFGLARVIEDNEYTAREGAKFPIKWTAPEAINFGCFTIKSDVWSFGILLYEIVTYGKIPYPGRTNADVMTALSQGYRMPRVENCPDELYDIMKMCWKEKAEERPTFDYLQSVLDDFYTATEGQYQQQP
# Lyn B, sequence (P07948 1-491 isoform P07948-2, species assumed): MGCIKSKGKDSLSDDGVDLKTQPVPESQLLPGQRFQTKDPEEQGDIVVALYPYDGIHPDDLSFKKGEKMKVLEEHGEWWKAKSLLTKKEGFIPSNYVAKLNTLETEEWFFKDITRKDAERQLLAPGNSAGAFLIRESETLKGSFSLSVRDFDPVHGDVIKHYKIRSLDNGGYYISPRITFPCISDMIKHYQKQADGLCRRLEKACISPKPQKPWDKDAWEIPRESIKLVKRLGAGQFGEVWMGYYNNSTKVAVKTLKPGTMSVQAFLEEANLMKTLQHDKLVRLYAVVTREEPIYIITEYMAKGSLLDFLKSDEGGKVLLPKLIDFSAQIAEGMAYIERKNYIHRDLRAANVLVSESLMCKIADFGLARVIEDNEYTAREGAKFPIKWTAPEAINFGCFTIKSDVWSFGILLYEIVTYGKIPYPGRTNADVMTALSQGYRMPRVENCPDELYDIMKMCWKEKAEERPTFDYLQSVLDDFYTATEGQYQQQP
compound,measurement,setting,value
"CC(O)COCC(Cc1ccc(O)cc1)NC(=O)CCc1ccccc1 (single isomer, unassigned) [E1]",modulation of LynB tyrosine kinase activity,Lyn B,had no effect
same,"delta force right minus left leg, Day 14 Pretreatment",[1]; 7.5 mg/kg IP (group 5),50.10 ± 0.64 g
same,"mean Von Frey force, left operated leg, Day 14 Pretreatment",[1]; 7.5 mg/kg IP (group 5),9.90 ± 0.64 g
same,"difference (delta) force between right healthy leg and left operated leg, Baseline",[1]; 7.5 mg/kg IP (group 5),0.00 ± 0.00 g
same,"mean Von Frey force required for withdrawal of the left operated leg, Baseline",[1]; 7.5 mg/kg IP (group 5),56.60 ± 3.40 g
same,inhibition of allodynia compared to the pretreatment value of delta withdrawal force,[1]; [3],inhibited allodynia
same,"pain relief activity, delta withdrawal force between the two legs vs. Vehicle",[1]; [3],significant pain relief activity
same,inhibition of allodynia compared to the pretreatment value of delta withdrawal force,"[1]; 7.5 mg/kg IP, day 21, 5 hours",inhibited allodynia
same,"pain relief activity, delta withdrawal force between the two legs vs. Vehicle","[1]; 7.5 mg/kg IP, day 21 pretreatment, 2, 5, 24 and 48 hours",significant pain relief activity
same,inhibition of allodynia (Von Frey) compared to the Vehicle control,[1]; [4],effectively inhibited allodynia
same,inhibition of allodynia (Von Frey) compared to the pretreatment value,[1]; [4],inhibited allodynia
same,inhibition of allodynia (Von Frey) compared to the pretreatment value,"[1]; 7.5 mg/kg IP, study day 21, 5 hours",inhibited allodynia
same,inhibition of allodynia (Von Frey) compared to the Vehicle control,"[1]; 7.5 mg/kg IP, study day 21 pretreatment and 2, 5, 24 and 48 hours",inhibited allodynia
same,"conclusion: pain analgesic item, parameters of mechanical allodynia","[1]; 7.5 mg/kg, 2, 5 and 24 hours day 14, 2, 5, 24 and 48 hours day 21",effective
same,"delta force right minus left leg, Day 14 Post-treatment 2 hours",[1]; 15 mg/kg IP (group 4),48.20 ± 5.67 g
same,"delta force right minus left leg, Day 14 Post-treatment 5 hours",[1]; 15 mg/kg IP (group 4),29.20 ± 6.66 g
same,"mean Von Frey force, left operated leg, Day 14 Post-treatment 2 hours",[1]; 15 mg/kg IP (group 4),11.80 ± 5.67 g
same,"delta force right minus left leg, Day 14 Pretreatment",[1]; 15 mg/kg IP (group 4),50.20 ± 0.90 g
same,"mean Von Frey force, left operated leg, Day 14 Pretreatment",[1]; 15 mg/kg IP (group 4),9.80 ± 0.90 g
same,"difference (delta) force between right healthy leg and left operated leg, Baseline",[1]; 15 mg/kg IP (group 4),0.00 ± 0.00 g
same,"mean Von Frey force required for withdrawal of the left operated leg, Baseline",[1]; 15 mg/kg IP (group 4),56.60 ± 3.40 g
same,"delta force right minus left leg, Day 21 Post-treatment 48 hours",[1]; [5],39.80 ± 4.80 g
same,"mean Von Frey force, left operated leg, Day 21 Post-treatment 48 hours",[1]; [5],20.20 ± 4.80 g
same,inhibition of allodynia compared to the pretreatment value of delta withdrawal force,[1]; [6],inhibited allodynia
same,"pain relief activity, delta withdrawal force between the two legs vs. Vehicle",[1]; [6],significant pain relief activity
same,"pain relief activity, delta withdrawal force between the two legs vs. Vehicle","[1]; 15 mg/kg IP, day 21 pretreatment, 2, 5 and 24 hours",significant pain relief activity
same,inhibition of allodynia (Von Frey) compared to the Vehicle control,[1]; [7],inhibited allodynia
same,inhibition of allodynia (Von Frey) compared to the pretreatment value,[1]; [7],inhibited allodynia
same,inhibition of allodynia (Von Frey) compared to the Vehicle control,"[1]; 15 mg/kg IP, study day 14, 2 hours",did not inhibit allodynia
same,inhibition of allodynia (Von Frey) compared to the Vehicle control,"[1]; 15 mg/kg IP, study day 21, 48 hours",less effective
same,inhibition of allodynia (Von Frey) compared to the Vehicle control,"[1]; 15 mg/kg IP, study day 21 pretreatment, 2, 5 and 24 hours",inhibited allodynia
same,"conclusion: pain analgesic item, parameters of mechanical allodynia","[1]; 15 mg/kg, 5 and 24 hours day 14, 2, 5 and 24 hours day 21",effective
same,"delta force right minus left leg, Day 14 Post-treatment 2 hours",[1]; 30 mg/kg IP (group 3),46.80 ± 1.70 g
same,"delta force right minus left leg, Day 14 Post-treatment 24 hours",[1]; 30 mg/kg IP (group 3),34.80 ± 6.25 g
same,"mean Von Frey force, left operated leg, Day 14 Post-treatment 2 hours",[1]; 30 mg/kg IP (group 3),13.20 ± 1.70 g
same,"mean Von Frey force, left operated leg, Day 14 Post-treatment 5 hours",[1]; 30 mg/kg IP (group 3),30.60 ± 5.10 g
same,"delta force right minus left leg, Day 14 Pretreatment",[1]; 30 mg/kg IP (group 3),49.50 ± 1.06 g
same,"mean Von Frey force, left operated leg, Day 14 Pretreatment",[1]; 30 mg/kg IP (group 3),10.50 ± 1.06 g
same,"difference (delta) force between right healthy leg and left operated leg, Baseline",[1]; 30 mg/kg IP (group 3),0.00 ± 0.00 g
same,"mean Von Frey force required for withdrawal of the left operated leg, Baseline",[1]; 30 mg/kg IP (group 3),60.00 ± 0.00 g
same,"delta force right minus left leg, Day 21 Post-treatment 48 hours",[1]; [8],51.10 ± 0.82 g
same,"mean Von Frey force, left operated leg, Day 21 Post-treatment 2 hours",[1]; [8],19.40 ± 1.80 g
same,"mean Von Frey force, left operated leg, Day 21 Post-treatment 5 hours",[1]; [8],22.90 ± 4.64 g
same,"mean Von Frey force, left operated leg, Day 21 Post-treatment 24 hours",[1]; [8],17.50 ± 2.48 g
same,"mean Von Frey force, left operated leg, Day 21 Post-treatment 48 hours",[1]; [8],8.90 ± 0.82 g
same,"delta force right minus left leg, Day 21 Pretreatment",[1]; [9],47.00 ± 1.76 g
same,"mean Von Frey force, left operated leg, Day 21 Pretreatment",[1]; [9],13.00 ± 1.76 g
same,inhibition of allodynia compared to the pretreatment value of delta withdrawal force,"[1]; 30 mg/kg IP, day 14, 5 hours",inhibited allodynia
same,"pain relief activity, delta withdrawal force between the two legs vs. Vehicle","[1]; 30 mg/kg IP, day 14, 5 hours",significant pain relief activity
same,inhibition of allodynia compared to the pretreatment value of delta withdrawal force,[1]; [10],inhibited allodynia
same,"pain relief activity, delta withdrawal force between the two legs vs. Vehicle",[1]; [10],significant pain relief activity
same,inhibition of allodynia (Von Frey) compared to the pretreatment value,"[1]; 30 mg/kg IP, study day 14, 5 hours",inhibited allodynia
same,inhibition of allodynia (Von Frey) compared to the pretreatment value,"[1]; 30 mg/kg IP, study day 21, 2, 5 and 24 hours",inhibited allodynia
same,"conclusion: pain analgesic item, parameters of mechanical allodynia","[1]; 30 mg/kg, at 5 post administration day 14, 2, 5 and 24 hours day 21",effective
same,duration of analgesic effect post administration,[1]; summary statement,more than 24 hours
same,behaviour of the operated paw on the Von Frey apparatus,[1]; treated animals,laid completely the operated paw on the metal mesh surface
same,Mean group body weight Day 14,[2]; 7.5 mg/kg IP (group 5),287.60 ± 5.14 g
same,Mean group body weight Day 7,[2]; 7.5 mg/kg IP (group 5),258.90 ± 4.41 g
same,Mean group body weight Baseline,[2]; 7.5 mg/kg IP (group 5),245.80 ± 2.54 g
same,Mean group body weight Day 21,[2]; 7.5 mg/kg IP once daily from day 14 (group 5),303.80 ± 6.26 g
same,Mean group body weight Day 14,[2]; 15 mg/kg IP (group 4),289.80 ± 3.27 g
same,Mean group body weight Day 7,[2]; 15 mg/kg IP (group 4),259.20 ± 3.29 g
same,Mean group body weight Baseline,[2]; 15 mg/kg IP (group 4),245.00 ± 2.80 g
same,Mean group body weight Day 21,[2]; 15 mg/kg IP once daily from day 14 (group 4),298.50 ± 3.27 g
same,Mean group body weight Day 14,[2]; 30 mg/kg IP (group 3),288.70 ± 5.51 g
same,Mean group body weight Day 7,[2]; 30 mg/kg IP (group 3),261.20 ± 4.45 g
same,Mean group body weight Baseline,[2]; 30 mg/kg IP (group 3),245.20 ± 3.19 g
same,Mean group body weight Day 21,[2]; [9],303.30 ± 6.01 g
same,modulation of LynA tyrosine kinase activity,Lyn A,activated
same,modulation of BLK tyrosine kinase activity,BLK,activated
